Data taken from US20150018311A1, “THERAPEUTIC BORON-CONTAINING COMPOUNDS” (priority 2012, published 2015).

What was measured:
Assay in all cases: Growth in liquid media in presence of test compound
Assay type in all cases: cell-based
[1] = test system: Mycobacterium tuberculosis (H37Rv)
[2] = test system: Candida albicans (ATCC 90028)
From the text: (§1) Test organisms used were the bacterial strains Escherichia coli (ATCC 25922), Pseudomonas aeruginosa (ATCC 27853), Staphylococcus aureus (ATCC 25923), Streptococcus pyogenes (ATCC 19615), and Mycobacterium tuberculosis (H37Rv), and the yeast strain Candida albicans (ATCC 90028).
(§2) The liquid media used for growth were Luria-Bertani (Becton Dickinson, Sparks, Md.) and Mueller-Hinton (bio-Merieux, Paris, France) broths, but with Saburo medium for Candida and Middlebrook 7H9 medium (Difco) for mycobacteria.
(§3) The strains were grown at 37° C. and after suitable cell concentrations had been reached, 100 μL of each cell suspension was added to a tube with growth media and test compound. Cultivation of the bacteria was then carried out in the presence of each test compound at 37° C. and the tubes examined for visible growth. The compounds were tested at concentrations of either 500 mg/l, 50 mg/l or 5 mg/l. This assay was repeated twice.
(§4) Some compounds were only tested against some test organisms. It will be appreciated that the charge of these molecules will depend on the environment, some of the Examples are shown with a suitable counter ion, some without.

[3] = test system: Escherichia coli (ATCC 25922)
From the text: as §1, §2, §3, §4

[4] = test system: Pseudomonas aeruginosa (ATCC 27853)
From the text: as §1, §2, §3, §4

[5] = test system: Staphylococcus aureus (ATCC 25923)
From the text: as §1, §2, §3, §4

[6] = test system: Streptococcus pyogenes (ATCC 19615)
From the text: as §1, §2, §3, §4

SMILES: CC1(C)C2CC3OB(C(CNC(=O)C(N)CCCCN)Cc4ccccc4)OC3(C)C1C2 (stereo not drawn) [Compound 13]
- Growth in the presence of test compound, M. tuberculosis ([1]; 5 mg/L): +
- Growth in the presence of test compound, M. tuberculosis ([1]; 50 mg/L): −
- Growth in the presence of test compound, M. tuberculosis ([1]; 500 mg/L): −
- Growth in the presence of test compound, C. albicans ([2]; 5 mg/L): +
- Growth in the presence of test compound, C. albicans ([2]; 50 mg/L): +
- Growth in the presence of test compound, C. albicans ([2]; 500 mg/L): −
- Growth in the presence of test compound, E. coli ([3]; 5 mg/L): +
- Growth in the presence of test compound, E. coli ([3]; 50 mg/L): +
- Growth in the presence of test compound, E. coli ([3]; 500 mg/L): −
- Growth in the presence of test compound, P. aeruginosa ([4]; 5 mg/L): +
- Growth in the presence of test compound, P. aeruginosa ([4]; 50 mg/L): +
- Growth in the presence of test compound, P. aeruginosa ([4]; 500 mg/L): −
- Growth in the presence of test compound, S. aureus ([5]; 5 mg/L): +
- Growth in the presence of test compound, S. aureus ([5]; 50 mg/L): +
- Growth in the presence of test compound, S. aureus ([5]; 500 mg/L): −
- Growth in the presence of test compound, S. pyogenes ([6]; 5 mg/L): +
- Growth in the presence of test compound, S. pyogenes ([6]; 50 mg/L): +
- Growth in the presence of test compound, S. pyogenes ([6]; 500 mg/L): −

SMILES: CC1(C)C2CC3OB([C@H](CNC(=O)[C@@H](N)Cc4ccccc4)Cc4ccccc4)O[C@@]3(C)C1C2 (stereo partly drawn) [Compound 14]
- Growth in the presence of test compound, M. tuberculosis ([1]; 5 mg/L): +
- Growth in the presence of test compound, M. tuberculosis ([1]; 50 mg/L): −
- Growth in the presence of test compound, M. tuberculosis ([1]; 500 mg/L): −
- Growth in the presence of test compound, C. albicans ([2]; 5 mg/L): +
- Growth in the presence of test compound, C. albicans ([2]; 50 mg/L): ±
- Growth in the presence of test compound, C. albicans ([2]; 500 mg/L): ±
- Growth in the presence of test compound, E. coli ([3]; 5 mg/L): +
- Growth in the presence of test compound, E. coli ([3]; 50 mg/L): +
- Growth in the presence of test compound, E. coli ([3]; 500 mg/L): +
- Growth in the presence of test compound, P. aeruginosa ([4]; 5 mg/L): +
- Growth in the presence of test compound, P. aeruginosa ([4]; 50 mg/L): +
- Growth in the presence of test compound, P. aeruginosa ([4]; 500 mg/L): −
- Growth in the presence of test compound, S. aureus ([5]; 5 mg/L): +
- Growth in the presence of test compound, S. aureus ([5]; 50 mg/L): +
- Growth in the presence of test compound, S. aureus ([5]; 500 mg/L): +
- Growth in the presence of test compound, S. pyogenes ([6]; 5 mg/L): +
- Growth in the presence of test compound, S. pyogenes ([6]; 50 mg/L): +
- Growth in the presence of test compound, S. pyogenes ([6]; 500 mg/L): ±

SMILES: C[C@H](N)C(=O)NC[C@H](Cc1ccccc1)B1OC2CC3CC(C3(C)C)[C@]2(C)O1 (stereo partly drawn) [Compound 15]
- Growth in the presence of test compound, M. tuberculosis ([1]; 5 mg/L): +
- Growth in the presence of test compound, M. tuberculosis ([1]; 50 mg/L): −
- Growth in the presence of test compound, M. tuberculosis ([1]; 500 mg/L): −
- Growth in the presence of test compound, C. albicans ([2]; 5 mg/L): +
- Growth in the presence of test compound, C. albicans ([2]; 50 mg/L): +
- Growth in the presence of test compound, C. albicans ([2]; 500 mg/L): −
- Growth in the presence of test compound, E. coli ([3]; 5 mg/L): +
- Growth in the presence of test compound, E. coli ([3]; 50 mg/L): +
- Growth in the presence of test compound, E. coli ([3]; 500 mg/L): ±
- Growth in the presence of test compound, P. aeruginosa ([4]; 5 mg/L): +
- Growth in the presence of test compound, P. aeruginosa ([4]; 50 mg/L): +
- Growth in the presence of test compound, P. aeruginosa ([4]; 500 mg/L): +
- Growth in the presence of test compound, S. aureus ([5]; 5 mg/L): +
- Growth in the presence of test compound, S. aureus ([5]; 50 mg/L): +
- Growth in the presence of test compound, S. aureus ([5]; 500 mg/L): −
- Growth in the presence of test compound, S. pyogenes ([6]; 5 mg/L): +
- Growth in the presence of test compound, S. pyogenes ([6]; 50 mg/L): +
- Growth in the presence of test compound, S. pyogenes ([6]; 500 mg/L): +

SMILES: CC1(C)C2CC3OB([C@H](CCc4ccccc4)CNC(=O)[C@@H](N)Cc4ccccc4)O[C@]3(C)C1C2 (stereo partly drawn) [Compound 18]
- Growth in the presence of test compound, M. tuberculosis ([1]; 5 mg/L): +
- Growth in the presence of test compound, M. tuberculosis ([1]; 50 mg/L): −
- Growth in the presence of test compound, M. tuberculosis ([1]; 500 mg/L): −
- Growth in the presence of test compound, C. albicans ([2]; 5 mg/L): +
- Growth in the presence of test compound, C. albicans ([2]; 50 mg/L): ±
- Growth in the presence of test compound, C. albicans ([2]; 500 mg/L): ±
- Growth in the presence of test compound, E. coli ([3]; 5 mg/L): +
- Growth in the presence of test compound, E. coli ([3]; 50 mg/L): +
- Growth in the presence of test compound, E. coli ([3]; 500 mg/L): +
- Growth in the presence of test compound, P. aeruginosa ([4]; 5 mg/L): +
- Growth in the presence of test compound, P. aeruginosa ([4]; 50 mg/L): ±
- Growth in the presence of test compound, P. aeruginosa ([4]; 500 mg/L): ±
- Growth in the presence of test compound, S. aureus ([5]; 5 mg/L): +
- Growth in the presence of test compound, S. aureus ([5]; 50 mg/L): −
- Growth in the presence of test compound, S. aureus ([5]; 500 mg/L): ±
- Growth in the presence of test compound, S. pyogenes ([6]; 5 mg/L): +
- Growth in the presence of test compound, S. pyogenes ([6]; 50 mg/L): ±
- Growth in the presence of test compound, S. pyogenes ([6]; 500 mg/L): ±

SMILES: CC1(C)C2CC3OB([C@H](CCc4ccccc4)CNC(=O)[C@@H](N)CCCCN)O[C@]3(C)C1C2 (stereo partly drawn) [Compound 19]
- Growth in the presence of test compound, M. tuberculosis ([1]; 5 mg/L): +
- Growth in the presence of test compound, M. tuberculosis ([1]; 50 mg/L): −
- Growth in the presence of test compound, M. tuberculosis ([1]; 500 mg/L): −
- Growth in the presence of test compound, C. albicans ([2]; 5 mg/L): +
- Growth in the presence of test compound, C. albicans ([2]; 50 mg/L): +
- Growth in the presence of test compound, C. albicans ([2]; 500 mg/L): −
- Growth in the presence of test compound, E. coli ([3]; 5 mg/L): +
- Growth in the presence of test compound, E. coli ([3]; 50 mg/L): +
- Growth in the presence of test compound, E. coli ([3]; 500 mg/L): −
- Growth in the presence of test compound, P. aeruginosa ([4]; 5 mg/L): +
- Growth in the presence of test compound, P. aeruginosa ([4]; 50 mg/L): +
- Growth in the presence of test compound, P. aeruginosa ([4]; 500 mg/L): −
- Growth in the presence of test compound, S. aureus ([5]; 5 mg/L): +
- Growth in the presence of test compound, S. aureus ([5]; 50 mg/L): +
- Growth in the presence of test compound, S. aureus ([5]; 500 mg/L): ±
- Growth in the presence of test compound, S. pyogenes ([6]; 5 mg/L): +
- Growth in the presence of test compound, S. pyogenes ([6]; 50 mg/L): +
- Growth in the presence of test compound, S. pyogenes ([6]; 500 mg/L): −

SMILES: CC1(C)C2CC3OB([C@H](CCc4ccccc4)CNC(=O)[C@H](N)CCCCN)O[C@]3(C)C1C2 (stereo partly drawn) [Compound 20]
- Growth in the presence of test compound, M. tuberculosis ([1]; 5 mg/L): +
- Growth in the presence of test compound, M. tuberculosis ([1]; 50 mg/L): −
- Growth in the presence of test compound, M. tuberculosis ([1]; 500 mg/L): −
- Growth in the presence of test compound, C. albicans ([2]; 5 mg/L): +
- Growth in the presence of test compound, C. albicans ([2]; 50 mg/L): ±
- Growth in the presence of test compound, C. albicans ([2]; 500 mg/L): ±
- Growth in the presence of test compound, E. coli ([3]; 5 mg/L): +
- Growth in the presence of test compound, E. coli ([3]; 50 mg/L): +
- Growth in the presence of test compound, E. coli ([3]; 500 mg/L): +
- Growth in the presence of test compound, P. aeruginosa ([4]; 5 mg/L): +
- Growth in the presence of test compound, P. aeruginosa ([4]; 50 mg/L): ±
- Growth in the presence of test compound, P. aeruginosa ([4]; 500 mg/L): ±
- Growth in the presence of test compound, S. aureus ([5]; 5 mg/L): +
- Growth in the presence of test compound, S. aureus ([5]; 50 mg/L): −
- Growth in the presence of test compound, S. aureus ([5]; 500 mg/L): ±
- Growth in the presence of test compound, S. pyogenes ([6]; 5 mg/L): +
- Growth in the presence of test compound, S. pyogenes ([6]; 50 mg/L): ±
- Growth in the presence of test compound, S. pyogenes ([6]; 500 mg/L): ±

SMILES: CC1(C)C2CC3OB([C@@H](CNC(=O)[C@@H](N)CCCCN)Cc4ccc5ccccc5c4)O[C@]3(C)C1C2 (stereo partly drawn) [Compound 21]
- Growth in the presence of test compound, M. tuberculosis ([1]; 5 mg/L): −
- Growth in the presence of test compound, M. tuberculosis ([1]; 50 mg/L): −
- Growth in the presence of test compound, M. tuberculosis ([1]; 500 mg/L): −
- Growth in the presence of test compound, C. albicans ([2]; 5 mg/L): +
- Growth in the presence of test compound, C. albicans ([2]; 50 mg/L): +
- Growth in the presence of test compound, C. albicans ([2]; 500 mg/L): ±
- Growth in the presence of test compound, E. coli ([3]; 5 mg/L): +
- Growth in the presence of test compound, E. coli ([3]; 50 mg/L): +
- Growth in the presence of test compound, E. coli ([3]; 500 mg/L): +
- Growth in the presence of test compound, P. aeruginosa ([4]; 5 mg/L): +
- Growth in the presence of test compound, P. aeruginosa ([4]; 50 mg/L): +
- Growth in the presence of test compound, P. aeruginosa ([4]; 500 mg/L): ±
- Growth in the presence of test compound, S. aureus ([5]; 5 mg/L): +
- Growth in the presence of test compound, S. aureus ([5]; 50 mg/L): ±
- Growth in the presence of test compound, S. aureus ([5]; 500 mg/L): +
- Growth in the presence of test compound, S. pyogenes ([6]; 5 mg/L): +
- Growth in the presence of test compound, S. pyogenes ([6]; 50 mg/L): +
- Growth in the presence of test compound, S. pyogenes ([6]; 500 mg/L): ±
